Several values for one entry are separate records, joined by “and”; a condition that tells them apart may be missing. Equal values may be shown once. Entries after “also recorded” stand apart in the source; their conditions may differ.
Legend:
Format in all cases: in vivo, mouse
IFNα = assay: Serum IFNα at EOS in NZM mice; details: CTX 50 mg/kg once weekly ip
Experimental: (§1) Age mated, female, NZM or NZW/LacJ, mice were matured for the study of lupus nephritis for a total of 7 months or 210 days at which time urine was collected for proteinuria detection. Mice with 0.5-1.0 mg/ml of urine protein as determined by an optical density-based total protein precipitation assay and cross-checked for 30-300 mg/dl of protein as determined by a stick assay were considered proteinuria positive and selected for study entry. Groups were normalized to contain a Gaussian distribution of proteinuria positive animals (i.e., ⅓ low proteinuria, ⅓ medium, ⅓ high) then randomized between groups before ear marking and taking baseline measures including urine and serum collections. A total of five mice from the total population were randomly selected for baseline kidney histology evaluation. Treatments and tests for each group are as described in FIG. 12. Briefly, with a minimum of 10 mice per group, COMPOUND A was administered at 100 mg/kg or 55 mg/kg, both twice a day and orally. […] Vehicle included 3% DMSO, 10% Solutol and 87% PBS. […] End-stage lupus nephritis was evaluated by histopathology and scored by a board certified pathologist for the assessment of total renal damage in diseased animals using the scoring method described by Smith et al (Smith, Dong et al. 2007). […] Day-98 or “end of treatment/study” represents 310 days of age for the NZM animals.

NZM mice [1] = assay: Renal histopathology kidney IC-GN scoring in NZM mice; details: for B: Glomerular Cellularity / C: Glomerular Necrosis / D: Glomerular Sclerosis / E: Interstitial Infiltration / F: Tubular Atrophy / G: Interstitial Fibrosis / H: Vasculitis: NZM individual mouse; for Glomerular Cellularity / Glomerular Necrosis / Glomerulosclerosis / Interstitial Fibrosis / Interstitial Infiltration / Tubular Atrophy / Vasculitis: NZM kidney score (grade 0-5), mean
Experimental: (§2) For histological analyses, the left kidney and lung (NZM model only) from each animal was removed and fixed in 10% buffered neutral 10% formalin (EMD) for 48 hours on an orbital rocker at 25° C., then washed overnight with running dH2O and stored in 70% ethanol at 4° C. until ready to be processed. Kidney stains used for histological analyses included hematoxylin and eosin (H&E), Periodic Acid Schiff (PAS) and Trichrome stains (Wistar Institute, Philadelphia, Pa.). All 3 stained sections were used by the pathologist for scoring purposes. All histological scoring was performed blinded and by an independent board certified veterinary medical pathologist (Julie Engiles, VMD, DACVP; University of Pennsylvania). Multiple stains were used to determine score values. Images in FIGS. 8, 19 and 20 show worst affected area of section selected blindly by the pathologist.
Kidney IC-GN Scoring Method (Smith, Dong et al. 2007):
1. […]
2. […]
3. […]
4. […]
5. […]
6. […]
7. […]
Also considered effacement of the glomerular tuft by PAS positive, Trichrome negative material necrosis. • Glomerular sclerosis was defined by increased fibroplasia or fibrosis within the glomerular tuft or capsule. […] Pharmacodynamic (PD) Analysis
as §1

NZM mice [2] = assay: Lung histopathology in NZM mice; details: CTX 50 mg/kg once weekly ip
Experimental: as §2, with “Multiple stains were used to determine score values. Images in FIGS. 8, 19 and 20 show worst affected area of section selected blindly by the pathologist.” left out
Age mated, female, NZM or NZW/LacJ, mice were matured for the study of lupus nephritis for a total of 7 months or 210 days at which time urine was collected for proteinuria detection. Mice with 0.5-1.0 mg/ml of urine protein as determined by an optical density-based total protein precipitation assay and cross-checked for 30-300 mg/dl of protein as determined by a stick assay were considered proteinuria positive and selected for study entry. […] End-stage lupus nephritis was evaluated by histopathology and scored by a board certified pathologist for the assessment of total renal damage in diseased animals using the scoring method described by Smith et al (Smith, Dong et al. 2007). […]

MRL/lpr mice = assay: Renal histopathology kidney IC-GN scoring in MRL/lpr mice; details: MRL/lpr kidney score (grade 0-5), mean; Dex 1.5 mg/kg
Experimental: Kidney stains used for histological analyses included hematoxylin and eosin (H&E), Periodic Acid Schiff (PAS) and Trichrome stains (Wistar Institute, Philadelphia, Pa.). All 3 stained sections were used by the pathologist for scoring purposes. All histological scoring was performed blinded and by an independent board certified veterinary medical pathologist (Julie […]; University of Pennsylvania). Multiple stains were used to determine score values. Images in FIGS. 8, 19 and 20 show worst affected area of section selected blindly by the pathologist. Kidney IC-GN Scoring Method (Smith, Dong et al. 2007): 1. Glomerular cellularity-Score 1-5: Null, low, moderate, high, severe […] Glomerular necrosis-Score 1-5: Null, low, moderate, high, severe […] Glomerulosclerosis-Score 1-5: Null, low, moderate, high, severe […] Null, low, moderate, high, severe 5. […] Null, low, moderate, high, severe 6. […] Null, low, moderate, high, severe 7. […] Null, low, moderate, high, severe Specific Pathologist Definitions: • Necrosis was defined by the presence of nuclear debris/pyknosis within the glomerular tuft indicative of “necrosis.” In many samples, this was a very mild, rare finding within only a very few segments of the glomerular tuft. Also considered effacement of the glomerular tuft by PAS positive, Trichrome negative material necrosis. • Glomerular sclerosis was defined by increased fibroplasia or fibrosis within the glomerular tuft or capsule. […] Most of the vascular changes were mild and could be considered “arteriosclerosis” characterized by proliferation of the smooth muscle cells, and hyalinization of the extracellular matrix. This change may reflect hypertension secondary to glomerular pathology. In very few animals was there overt “vasculitis.” Most inflammatory changes were within the walls of the blood vessels, with little to no damage to the endothelium, and no overt hemorrhage/fibrin leakage. Many also have perivascular rims of fibroblasts. […] Mice were tracked on an individual basis.

O=P1(N(CCCl)CCCl)NCCCO1 (stereo not shown) [CTX, cyclophosphamide, reference compound]
serum IFNα reduction (IFNα): Neither standard of care agent (i.e., CTX or DEX) exhibited a significant reduction | B: Glomerular Cellularity (NZM mice [1]; CTX 50 mpk 1 × wk): ++ (‘++’ moderate (3)); also recorded: + (‘+’ mild (2)); also recorded: − (‘−’ no disease (1)) | C: Glomerular Necrosis (NZM mice [1]; CTX 50 mpk 1 × wk): ++ (‘++’ moderate (3)) (2×) and − (‘−’ no disease (1)) (3×) and + (‘+’ mild (2)) (3×) and _ | D: Glomerular Sclerosis (NZM mice [1]; CTX 50 mpk 1 × wk): +++ (‘+++’ high (4)); also recorded: − (‘−’ no disease (1)); also recorded: ++ (‘++’ moderate (3)); also recorded: + (‘+’ mild (2)) | E: Interstitial Infiltration (NZM mice [1]; CTX 50 mpk 1 × wk): + (‘+’ mild (2)) (2×) and − (‘−’ no disease (1)) (5×) and +++ (‘+++’ high (4)) and _ | F: Tubular Atrophy (NZM mice [1]; CTX 50 mpk 1 × wk): ++++ (‘++++’ severe disease (5)); also recorded: − (‘−’ no disease (1)); also recorded: + (‘+’ mild (2)); also recorded: ++ (‘++’ moderate (3)) | G: Interstitial Fibrosis (NZM mice [1]; CTX 50 mpk 1 × wk): +++ (‘+++’ high (4)); also recorded: − (‘−’ no disease (1)); also recorded: + (‘+’ mild (2)) | H: Vasculitis (NZM mice [1]; CTX 50 mpk 1 × wk): + (‘+’ mild (2)); also recorded: − (‘−’ no disease (1)) | Glomerular Cellularity (NZM mice [1]; CTX 50 mg/kg): 2.0 | Glomerular Necrosis (NZM mice [1]; CTX 50 mg/kg): 1.77 | Glomerulosclerosis (NZM mice [1]; CTX 50 mg/kg): 2.11 | Interstitial Fibrosis (NZM mice [1]; CTX 50 mg/kg): 1.55 | Interstitial Infiltration (NZM mice [1]; CTX 50 mg/kg): 1.55 | Tubular Atrophy (NZM mice [1]; CTX 50 mg/kg): 2.00 | Vasculitis (NZM mice [1]; CTX 50 mg/kg): 1.33 | lung infiltrates (NZM mice [2]): prevented lung infiltrates

C[C@@H]1C[C@H]2[C@@H]3CCC4=CC(=O)C=C[C@]4(C)[C@@]3(F)[C@@H](O)C[C@]2(C)[C@@]1(O)C(=O)CO [Dex, dexamethasone, reference compound]
Glomerular Cellularity (MRL/lpr mice): 3.00 | Glomerular Necrosis (MRL/lpr mice): 2.00 | Glomerulosclerosis (MRL/lpr mice): 2.00 | Interstitial Fibrosis (MRL/lpr mice): 1.20 | Interstitial Inflitration (MRL/lpr mice): 1.60 | Tubular Atrophy (MRL/lpr mice): 1.20 | Vasculitis (MRL/lpr mice): 1.40 | B: Glomerular Cellularity (NZM mice [1]; Dex 1.5 mpk 3 × wk): ++ (‘++’ moderate (3)); also recorded: + (‘+’ mild (2)); also recorded: +++ (‘+++’ high (4)) | C: Glomerular Necrosis (NZM mice [1]; Dex 1.5 mpk 3 × wk): ++ (‘++’ moderate (3)); also recorded: + (‘+’ mild (2)); also recorded: +++ (‘+++’ high (4)) | D: Glomerular Sclerosis (NZM mice [1]; Dex 1.5 mpk 3 × wk): +++ (‘+++’ high (4)); also recorded: − (‘−’ no disease (1)); also recorded: ++ (‘++’ moderate (3)); also recorded: ++++ (‘++++’ severe disease (5)) | E: Interstitial Infiltration (NZM mice [1]; Dex 1.5 mpk 3 × wk): ++ (‘++’ moderate (3)); also recorded: − (‘−’ no disease (1)); also recorded: +++ (‘+++’ high (4)) | F: Tubular Atrophy (NZM mice [1]; Dex 1.5 mpk 3 × wk): +++ (‘+++’ high (4)); also recorded: − (‘−’ no disease (1)) | G: Interstitial Fibrosis (NZM mice [1]; Dex 1.5 mpk 3 × wk): +++ (‘+++’ high (4)); also recorded: ++ (‘++’ moderate (3)); also recorded: − (‘−’ no disease (1)) | H: Vasculitis (NZM mice [1]; Dex 1.5 mpk 3 × wk): + (‘+’ mild (2)); also recorded: − (‘−’ no disease (1)); also recorded: +++ (‘+++’ high (4)) | Glomerular Cellularity (NZM mice [1]; Dex 1.5 mg/kg): 3.0 | Glomerular Necrosis (NZM mice [1]; Dex 1.5 mg/kg): 3.0 | Glomerulosclerosis (NZM mice [1]; Dex 1.5 mg/kg): 3.42 | Interstitial Fibrosis (NZM mice [1]; Dex 1.5 mg/kg): 2.71 | Interstitial Infiltration (NZM mice [1]; Dex 1.5 mg/kg): 2.71 | Tubular Atrophy (NZM mice [1]; Dex 1.5 mg/kg): 3.14 | Vasculitis (NZM mice [1]; Dex 1.5 mg/kg): 2.42

Reference: patent US9023853B2, “Janus kinase 2 (JAK2) inhibitor for the treatment of lupus” (Cephalon, Inc., priority 2010, dated 2015)
